Measurements from USRE38330E1, “Preventing and reversing advanced glycosylation endproducts” (Alteon Inc., priority 1995, dated 2003).
Counter-ions that a name gives are not always drawn. Like-named read-outs stand apart in the source and are kept apart here. Each block holds one molecule with its values, some of them ahead of it.

How the values were obtained:
[1] = target: T1, AGE-BSA previously crosslinked to the collagen (Bos taurus, UniProt P02769); experiment: Sandwich enzyme immunoassay for breaking of AGE moieties from AGE-BSA crosslinked to collagen (AGE breaker assay); assay type: biochemical, bovine; rat; settings: for IC50: AGE breaking, 16 hours 37° C.
T1 construct: Type V BSA (bovine serum albumin); purchased Calbiochem (BSA Type V); Collaborative Biomedical Products (Biocoat rat tail collagen type I plates)
T1 sequence (P02769 25-607): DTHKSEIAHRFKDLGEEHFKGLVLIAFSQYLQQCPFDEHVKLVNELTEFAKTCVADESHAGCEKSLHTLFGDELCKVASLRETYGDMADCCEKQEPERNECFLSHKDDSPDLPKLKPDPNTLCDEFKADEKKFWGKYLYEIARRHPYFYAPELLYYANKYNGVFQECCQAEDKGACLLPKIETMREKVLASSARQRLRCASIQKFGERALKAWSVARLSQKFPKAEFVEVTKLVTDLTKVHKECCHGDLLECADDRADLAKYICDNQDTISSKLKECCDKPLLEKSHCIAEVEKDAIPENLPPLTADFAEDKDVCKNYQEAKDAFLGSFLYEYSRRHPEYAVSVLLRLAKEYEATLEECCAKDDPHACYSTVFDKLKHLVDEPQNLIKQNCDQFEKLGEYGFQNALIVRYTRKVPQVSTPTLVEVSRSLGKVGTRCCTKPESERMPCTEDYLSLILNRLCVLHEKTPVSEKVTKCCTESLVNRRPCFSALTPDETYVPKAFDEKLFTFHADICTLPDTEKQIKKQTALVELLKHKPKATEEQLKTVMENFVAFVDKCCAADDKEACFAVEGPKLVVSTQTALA
T1 sequence (P02454 152-1207 partner limits assumed): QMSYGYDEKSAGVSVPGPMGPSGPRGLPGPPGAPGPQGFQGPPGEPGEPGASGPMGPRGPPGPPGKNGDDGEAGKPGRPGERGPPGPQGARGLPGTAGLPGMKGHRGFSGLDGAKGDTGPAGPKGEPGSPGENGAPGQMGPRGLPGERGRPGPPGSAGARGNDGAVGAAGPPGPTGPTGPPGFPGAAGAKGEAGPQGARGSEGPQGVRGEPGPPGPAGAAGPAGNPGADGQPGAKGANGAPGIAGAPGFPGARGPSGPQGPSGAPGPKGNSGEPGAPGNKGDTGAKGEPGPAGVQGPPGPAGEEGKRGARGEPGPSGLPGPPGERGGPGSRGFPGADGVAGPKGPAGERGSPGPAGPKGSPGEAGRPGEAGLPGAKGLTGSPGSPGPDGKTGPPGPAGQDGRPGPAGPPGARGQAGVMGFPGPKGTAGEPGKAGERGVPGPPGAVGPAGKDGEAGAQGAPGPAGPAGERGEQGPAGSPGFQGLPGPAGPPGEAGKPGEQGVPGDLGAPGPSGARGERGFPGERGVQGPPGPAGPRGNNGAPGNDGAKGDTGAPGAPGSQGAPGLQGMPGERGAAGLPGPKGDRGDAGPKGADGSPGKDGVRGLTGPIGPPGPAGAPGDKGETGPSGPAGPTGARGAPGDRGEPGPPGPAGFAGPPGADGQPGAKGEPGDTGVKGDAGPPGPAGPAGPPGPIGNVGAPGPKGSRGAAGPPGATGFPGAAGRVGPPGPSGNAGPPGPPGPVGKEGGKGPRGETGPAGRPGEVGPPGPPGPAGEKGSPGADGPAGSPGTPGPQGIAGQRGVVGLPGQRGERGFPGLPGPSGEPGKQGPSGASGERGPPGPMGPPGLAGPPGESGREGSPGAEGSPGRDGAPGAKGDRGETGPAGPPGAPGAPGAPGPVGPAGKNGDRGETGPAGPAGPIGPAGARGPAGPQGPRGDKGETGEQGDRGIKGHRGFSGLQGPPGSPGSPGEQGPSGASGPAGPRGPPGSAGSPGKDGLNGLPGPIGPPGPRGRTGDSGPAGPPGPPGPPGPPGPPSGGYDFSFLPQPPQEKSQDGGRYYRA
T1 sequence (P02466 86-1125 partner limits assumed): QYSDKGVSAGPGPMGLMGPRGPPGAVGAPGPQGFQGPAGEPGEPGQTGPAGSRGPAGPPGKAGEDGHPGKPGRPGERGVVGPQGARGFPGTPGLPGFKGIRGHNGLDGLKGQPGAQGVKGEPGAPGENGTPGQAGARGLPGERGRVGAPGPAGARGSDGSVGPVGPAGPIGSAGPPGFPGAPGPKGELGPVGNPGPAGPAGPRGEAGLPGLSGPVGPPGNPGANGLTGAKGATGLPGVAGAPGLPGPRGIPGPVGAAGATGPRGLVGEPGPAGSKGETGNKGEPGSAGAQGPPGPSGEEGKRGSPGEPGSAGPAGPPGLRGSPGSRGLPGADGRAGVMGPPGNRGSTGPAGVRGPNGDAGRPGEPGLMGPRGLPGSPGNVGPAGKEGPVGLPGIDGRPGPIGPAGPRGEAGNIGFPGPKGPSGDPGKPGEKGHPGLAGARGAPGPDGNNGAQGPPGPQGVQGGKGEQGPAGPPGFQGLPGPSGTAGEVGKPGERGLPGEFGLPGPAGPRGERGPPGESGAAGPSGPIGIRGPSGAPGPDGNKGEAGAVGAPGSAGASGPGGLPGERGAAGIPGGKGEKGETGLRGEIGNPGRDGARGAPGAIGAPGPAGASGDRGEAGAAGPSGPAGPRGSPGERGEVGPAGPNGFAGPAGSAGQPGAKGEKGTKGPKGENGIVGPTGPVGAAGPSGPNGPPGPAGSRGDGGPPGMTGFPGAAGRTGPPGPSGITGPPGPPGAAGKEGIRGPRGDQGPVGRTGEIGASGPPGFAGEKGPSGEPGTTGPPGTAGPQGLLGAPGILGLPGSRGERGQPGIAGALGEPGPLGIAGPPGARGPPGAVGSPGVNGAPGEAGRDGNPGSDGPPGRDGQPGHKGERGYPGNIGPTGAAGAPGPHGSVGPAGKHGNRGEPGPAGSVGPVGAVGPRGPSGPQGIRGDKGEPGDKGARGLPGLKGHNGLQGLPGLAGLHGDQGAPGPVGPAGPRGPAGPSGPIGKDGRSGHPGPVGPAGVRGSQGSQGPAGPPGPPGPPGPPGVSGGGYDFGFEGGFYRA
Method: The present invention also involves a novel sandwich enzyme immunoassay used to ascertain the ability of test compounds to “break” or reverse already formed advanced glycosylation endproducts by detecting the breaking of AGE (Advanced glycosylation endproduct) moieties from AGE-crosslinked protein. This assay comprises:
a) incubation of AGE-modified bovine serum albumin (AGE-BSA) on collagen-coated wells of microtiter plates for a period of 2-6 hours at a temperature of 37° C.;
b) washing of the wells with PBS-Tween;
c) application of the test compounds to the washed wells of step b;
d) incubation of the test compounds applied to the washed wells for an additional 12-24 hours at a temperature of about 37° C.; and
e) detection of the AGE-breaking using an antibody raised against AGE-ribonuclease or cross-link breaking with an antibody against BSA.
In order to ascertain the ability of the compounds of the instant invention to “break” or reverse already formed advanced glycosylation endproducts, a novel sandwich enzyme immunoassay was developed which detects breaking of AGE (Advanced glycosylation endproduct) moieties from AGE-crosslinked protein. The assay utilizes collagen-coated 96 will microtiter plates that are obtained commercially. AGE-modified protein (AGE-BSA) is incubated on the collagen-coated wells for four hours, is washed off the wells with PBS-Tween and the test compounds are added. Following an incubation period of 16 hours (37° C.) AGE-breaking is detected using an antibody raised against AGE-ribonuclease or with an antibody against BSA. […] Details of the assay are as follows:
1. AGE-BSA stock solutions were prepared as follows. Sodium phosphate buffer (0.4M) was prepared by dissolving 6 grams of monobasic sodium phosphate in 100 ml of distilled water, 7 grams of dibasic sodium phosphate (0.4M) in 100 ml of distilled water and adjusting the pH of the dibasic solution to 7.4 with the monobasic solution. Sodium azide (0.02 grams) was added per 100 ml volume to inhibit bacterial growth. The BSA solution was prepared as follows: 400 mg of Type V BSA (bovine serum albumin) was added for each ml of sodium phosphate buffer (above). A 400 mM glucose solution was prepared by dissolving […] of dextrose in 100 ml of sodium phosphate buffer (above). The BSA and glucose solutions were mixed 1:1 and incubated at 37° C. for 12 weeks. The pH of the incubation mixture was monitored weekly and adjusted to pH 7.4 if necessary. After 12 weeks, the AGE-BSA solution was dialyzed against PBS for 48 hours with four buffer changes, each at a 1:500 ratio of solution to dialysis buffer. Protein concentration was determined by the micro-Lowry method. The AGE-BSA stock solution was aliquoted and stored at −20° C.
2. Working solutions for crosslinking and breaking studies were prepared as follows. Test compounds were dissolved in PBS and the pH was adjusted to pH 7.4 if necessary. AGE-BSA stock solution was diluted in PBS to measure maximum crosslinking and in the inhibitor solution for testing inhibitory activity of compounds. The concentration of AGE-BSA necessary to achieve the optimum sensitivity was determined by initial titration of each lot of AGE-BSA.
3. Wash buffer (“PBS-Tween”) was prepared as follows. PBS was prepared by dissolving the following salts in one liter of distilled water: NaCl, 8 grams; KCl, 0.2 gram, KH2PO4. […] Tween-20 was added to a final concentration of 0.05% (vol/vol).
4. Substrates for detection of secondary antibody binding were prepared by diluting the HRP substrate buffer 1:10 in distilled water and mixing with ABTS chromogen 1:50 just prior to use.
1. Biocoat plates were blocked With 300 μl of “Superbloc”. Plates were blocked for one hour at room temperature and were washed with PBS-Tween three times with the Dynatech platewasher before addition of test reagents.
2. Each experiment was set up in the following manner.

[2] = target: T2, cross-linking of glycated bovine serum albumin (AGE-BSA) to the rat tail tendon collagen (Bos taurus, UniProt P02769); experiment: Inhibition of cross-linking of glycated BSA (AGE-BSA) to rat tail tendon collagen coated 96-well plate (ELISA); assay type: biochemical
T2 construct: glycated bovine serum albumin (AGE-BSA); from tissue; host or cells: collagen from rat tail tendon; BSA from bovine serum, glycated in house
T2 sequence (P02769 25-607): as the sequence (P02769 25-607) above
Method: The cross-linked AGE-BSA to the tail tendon coated plate was then quantitated by the polyclonal antibody raised against AGE-RNase.
The % inhibition of each test compound was calculated as follows.

[3] = tested on: aortic wall protein cross-linking in diabetic rats; settings: cited from earlier work
[4] = tested on: immunoglobulin trapping in the kidney; settings: in vivo; cited from earlier work
red blood cells = settings: in vivo; cited from earlier work
[5] = detection with anti-AGE-RNase antibody, read-out: IC50 (mM) Anti-AGE
[6] = detection with anti-BSA antibody, read-out: IC50 (mM) Anti-BSA
[7] = read-out: % Inhibition Anti-AGE (at mM)
[8] = read-out: % Inhibition Anti-BSA (at mM)

Structure (SMILES): O=C(C[n+]1ccsc1)c1ccccc1 [3-(2-phenyl-2-oxoethyl)thiazolium bromide]
IC50 [1, 5]: 20 µM | IC50 [1, 6]: 14 µM

melting point: 84 to 85 °C
Structure (SMILES): CC[n+]1csc(CCO)c1C.[Br-]

melting point: 234 to 235 °C
Structure (SMILES): NC(=O)C[n+]1c(N)sc2ccccc21.[Br-]

Structure (SMILES): Cc1sc[n+](CC(=O)c2ccccc2)c1C [3-(2-phenyl-2-oxoethyl)-4,5-dimethylthiazolium bromide]
IC50 [2]: 48500 µM | inhibition at 30000 µM [1, 7]: 56%

melting point: 191 to 192 °C
Structure (SMILES): COC(=O)C[n+]1ccsc1N.[Br-]

IC50 [2]: 74.9 µM | inhibition at 30000 µM ([1]; at 30 mM, detection with anti-AGE-RNase antibody, read-out: % Inhibition Anti-AGE (at mM)): 75% | inhibition at 30000 µM ([1]; at 30 mM, detection with anti-BSA antibody, read-out: % Inhibition Anti-BSA (at mM)): 35% | melting point: 212 to 214 °C (dec.)
Structure (SMILES): Nc1sc2ccccc2[n+]1N [2,3-diamino-benzothiazolium mesitylenesulfonate]

IC50 [2]: 226 µM | melting point: 205 to 206 °C
Structure (SMILES): NC(=O)C[n+]1ccsc1.[Br-] [3-(2-amino-2-oxoethyl)thiazolium bromide, 3-(2-amino-2-oxoethyl)-thiazolium bromide]

melting point: 251 to 252 °C (dec.)
Structure (SMILES): Cc1c(CCO)sc[n+]1CC(=O)c1ccc(Br)cc1 (as salt: bromide) [3-(2-[4^1-bromophenyl]-2-oxoethyl)-4-methyl-5-(2-hydroxyethyl)thiazolium bromide]

melting point: 240 to 241 °C (dec.)
Structure (SMILES): O=C(C[n+]1csc2ccccc21)c1ccccc1.[Br-]

melting point: 137 to 138 °C
Structure (SMILES): COC(=O)C[n+]1csc(CCO)c1C.[Br-] [3-(2-methoxy-2-oxoethyl)-4-methyl-5-(2-hydroxyethyl)-thiazolium bromide]

IC50 [2]: 28.9 µM | melting point: 179 to 180 °C
Structure (SMILES): Cc1c[n+](CC(N)=O)cs1.[Br-] [3-(2-amino-2-oxoethyl)-5-methyl-thiazolium bromide]

IC50 [2]: 2920 µM
Structure (SMILES): Cc1sc[n+](CC(=O)c2ccc(Br)cc2)c1C [3-(2-[4^1-bromophenyl]-2-oxoethyl)-4,5-dimethylthiazolium bromide]

Structure (SMILES): COC(=O)C[n+]1csc(C)c1C [3-(2-methoxy-2-oxoethyl)-4,5-dimethylthiazolium bromide]
IC50 [2]: 138 µM | inhibition at 30000 µM [1, 7]: 50% | inhibition at 30000 µM [1, 8]: 30%

melting point: 233 to 234 °C
Structure (SMILES): CC(=O)OCCc1sc[n+](CC(N)=O)c1C.[Br-]

melting point: 209 to 210 °C
Structure (SMILES): NC(=O)C[n+]1ccsc1N.[Br-]

Structure (SMILES): COC(=O)C[n+]1cscc1C.[Br-] [3-(2-methoxy-2-oxoethyl)-4-methylthiazolium bromide]
inhibition at 30000 µM [1, 7]: 54% | inhibition at 30000 µM [1, 8]: 41% | melting point: 149 to 151 °C (dec.)

Structure (SMILES): COC(=O)C[n+]1csc(C)c1.[Br-] [3-(2-methoxy-2-oxoethyl)-5-methyl-thiazolium bromide]
IC50 [2]: 73 µM | inhibition at 30000 µM [1, 7]: 72% | inhibition at 30000 µM [1, 8]: 27% | melting point: 193 to 194 °C (dec.)

Structure (SMILES): CC(=O)C[n+]1ccsc1.[Cl-] [3-(2-methyl-2-oxoethyl)thiazolium chloride]
IC50 ([1]; IC50 (mM) Anti-AGE, detection with anti-AGE-RNase antibody): 0.036 µM | IC50 ([1]; IC50 (mM) Anti-BSA, detection with anti-BSA antibody): 260 µM | melting point: 178 to 179 °C

Structure (SMILES): Cc1sc[n+](CC(N)=O)c1C.[Br-] [3-(2-amino-2-oxoethyl)-4,5-dimethyl-thiazolium bromide]
IC50 [2]: 338 µM | inhibition at 30000 µM [1, 7]: 69% | inhibition at 30000 µM [1, 8]: 75% | melting point: 147 to 148 °C

Structure (SMILES): Cc1c(CCO)sc[n+]1CC(N)=O [3-(2-amino-2-oxoethyl)-4-methyl-5-(2-hydroxyethyl)thiazolium bromide]
IC50 [2]: 1260 µM | IC50 [1, 5]: 12 µM | IC50 [1, 6]: 120 µM

melting point: 236 to 237 °C
Structure (SMILES): COC(=O)C[n+]1c(N)sc2ccccc21.[Br-]

Structure (SMILES): Cc1c(CCO)sc[n+]1CC(=O)c1ccccc1 [3-(2-phenyl-2-oxoethyl)-4-methyl-5-(2-hydroxyethyl)-thiazolium bromide]
IC50 [1, 5]: 14300 µM

Structure (SMILES): O=C(C[n+]1ccsc1)c1ccc(Br)cc1.[Br-] [3-(2-[4^1-bromophenyl]-2-oxoethyl)-thiazolium bromide]
% Inhibition Anti-AGE (at mM) ([1]; at 30 mM, detection with anti-AGE-RNase antibody): 76% | % Inhibition Anti-BSA (at mM) ([1]; at 30 mM, detection with anti-BSA antibody): 25%

Structure (SMILES): COC(=O)C[n+]1ccsc1 [3-(2-Methoxy-2-oxoethyl)thiazolium bromide]
IC50 [2]: 138 µM | inhibition at 30000 µM [1, 7]: 38% | inhibition at 30000 µM [1, 8]: 41%

IC50 [2]: 4510 µM
Structure (SMILES): Cc1c(CCO)sc[n+]1CC(=O)c1ccc(Br)cc1 [3-(2-[4^1-bromophenyl]-2-oxoethyl)-4-methyl-5-(2-hydroxyethyl)thiazolium bromide]

Structure (SMILES): O=C(O)C[n+]1csc2ccccc21.[Br-] [3-(carboxymethyl)benzothiazolium bromide, 3-(carboxymethyl)-benzothiazolium bromide]
inhibition at 30000 µM [1, 7]: 63.7% | inhibition at 30000 µM [1, 8]: 17.9% | melting point: 250 °C (dec.)

Structure (SMILES): N=C(N)NN [aminoguanidine]
aortic wall protein cross-linking [3]: diminishes aortic wall protein cross-linking | immunoglobulin trapping in the kidney [4]: reduction of immunoglobulin trapping in the kidney | diabetes-induced changes in the deformability of red blood cells (red blood cells): has been shown to prevent it in vivo

Structure (SMILES): Cc1csc[n+]1CC(=O)c1ccccc1.[Br-] [3-(2-phenyl-2-oxoethyl)-4-methylthiazolium bromide]
IC50 [2]: 10300 µM | IC50 [1, 5]: 230 µM | IC50 [1, 6]: 300 µM | melting point: 218 to 220 °C (dec.)

Structure (SMILES): Cc1csc[n+]1CC(N)=O [3-(2-amino-2-oxoethyl)-4-methyl-thiazolium bromide]
IC50 [2]: 116 µM | IC50 [1, 5]: 4700 µM | IC50 [1, 6]: 38600 µM

IC50 [2]: 13900 µM
Structure (SMILES): Cc1c[n+](CC(=O)c2ccccc2)cs1 [3-(2-phenyl-2-oxoethyl)-5-methyl-thiazolium bromide]

IC50 [1, 5]: 420 µM | IC50 [1, 6]: 550 µM | melting point: 144 to 146 °C
Structure (SMILES): Cc1c(CCO)sc[n+]1Cc1ccccc1.[Cl-] [3-benzyl-5-(2-hydroxyethyl)-4-methyl thiazolium chloride]

melting point: 217 to 218 °C
Structure (SMILES): COC(=O)C[n+]1csc(CCOC(C)=O)c1C.[Br-]

Structure (SMILES): COC(=O)C[n+]1csc2ccccc21 [3-(2-methoxy-2-oxoethyl)-benzothiazolium bromide]
IC50 [1, 5]: 1200 µM | IC50 [1, 6]: 25900 µM

Structure (SMILES): NC(=O)C[n+]1csc2ccccc21.[Br-] [3-(2-amino-2-oxoethyl)-benzothiazolium bromide]
IC50 [2]: 618 µM | IC50 [1, 5]: 140 µM | IC50 [1, 6]: 520 µM | melting point: 222 to 223 °C
